Data published in patent US20250099490A1, “25-HYDROXYVITAMIN D AS A FEED ADDITIVE FOR AQUATIC ANIMALS” (DSM IP Assets B.V., priority 2022, published 2025).
Entries after “also recorded” stand apart in the source; their conditions may differ.

Tests used:
Assay type in all cases: in vivo
[1] = Rainbow trout 20-week feeding from first-feeding, feed efficiency and whole body composition; conditions: 80 μg/Kg 25-OH-D3 plus D3, 20 weeks
Description: The first study evaluated standard dietary levels of supplemented vitamin D3 alone or in combination with 80 μg/Kg 25-hydroxy vitamin D3dietary 25-hydroxyvitamin D3 (25-OH D3) in rainbow trout fed for 20 weeks from first-feeding.
Two commercial-like experimental diets were formulated by DSM Nutritional Products France and produced by SPAROS (Portugal). The basal diet was supplemented with either vitamin D3 only (VitD3 diet) or D3 in combination with 80 μg/Kg 25-hydroxy vitamin D3 (25-OH-D3 diet) (Table 1).
The parameters for growth performance, including feed efficiency (FE), were measured every 3 weeks and calculated as follow: Feed efficiency (FE)=(the mass for dead fish+final wet body mass-initial wet body mass)/dry feed intake. […].
Data are presented as means±standard deviation (SD). For growth parameters, the plasma and the qPCR results, data were analyzed by t-Student comparison of two means. Normality was assessed using the Shaprio-Wilk test, while homoscedasticity was determined using Levene's test. Data was analysed using the statistical R software/R Commander package. For all statistical analyses, the level of significance was set at P<0.05. […] Differentially expressed genes (DEG) are determined and hierarchical clustering is illustrated by a heatmap. […]

[2] = Study 1: rainbow trout 91-day feeding trial, growth performance (SGR) and feed conversion (FCR); conditions: rainbow trout, 80, 800 or 8000 μg/kg 25-OH-D3 in feed, 91 days
Description: (§1) The first study evaluated dietary 25-hydroxyvitamin D3 (25-OH D3) compared to control basal diet fed fish. Fish with a mean starting weight of 58 g were fed diets based on the same standard composition representative of typical commercial salmonid feeds.
(§2) Test diets contained no supplemented 25-OH-D3 or either 80, 800 or 8000 μg/kg supplemented 25-OH-D3 (as fed basis). Hy·D (25-OH-D3) was supplemented on top of diets already containing cholecalciferol (D3) from both endogenous and supplemented sources. The measured levels of D3 in all experimental diets were in excess of established minimum dietary requirements for D3, (National Research Council (NRC), Nutrient Requirements of Fish and Shrimp. 2011, Washington, DC: The National Academies Press. 392.). In addition, the dietary level of D3 in all experimental diets met recommendations for optimal vitamin D3 in salmonid diets (Fish Nutrition. Fourth Edition 2021. Edited by Ronald W. Hardy and Sadasivam J. Kaushik. Academic Press, UK. 905 pp.), which stipulates a vitamin D3 supplementation of 2500-3500 international units (IU)/62.5-87.5 μg/kg). Diets were fed for 91 days following which, test fish reached a mean final weight of 332 g. Forty fish were housed in each tank and each treatment consisted of four replicate tanks.

[3] = Study 2: Atlantic salmon 90-day feeding trial, viscerosomatic index, carcass yield and visceral fat; conditions: Atlantic salmon, 100, 200 or 400 μg/kg 25-OH-D3 in feed, 90 days, relative to control
Description: (§3) The second study evaluated dietary 25-hydroxyvitamin D3 (25-OH D3) compared to control basal diet fed fish.
(§4) Fish with a mean starting weight of 23.4 g were fed diets based on the same standard composition representative of typical commercial salmonid feeds. Test diets contained no supplemented 25-OH-D3 or either 100, 200 or 400 μg/kg supplemented 25-OH-D3 (as fed basis). Hy·D (25-OH-D3) was supplemented on top of diets already containing cholecalciferol (D3) from both endogenous and supplemented sources. The measured levels of D3 in all experimental diets were in excess of established minimum dietary requirements for D3, (National Research Council (NRC), Nutrient Requirements of Fish and Shrimp. 2011, Washington, DC: The National Academies Press. 392.). In addition, the dietary level of D3 in all experimental diets met recommendations for optimal vitamin D3 in salmonid diets (Fish Nutrition. Fourth Edition 2021. Edited by Ronald W. Hardy and Sadasivam J. Kaushik. Academic Press, UK. 905 pp.), which stipulates a vitamin D3 supplementation of 2500-3500 international units (IU)/62.5-87.5 μg/kg). Diets were fed for 90 days with test fish reaching a mean final weight of 73.0 g. Twenty fish were housed in each tank and each treatment consisted of five replicate tanks.

[4] = Study 1: rainbow trout 91-day feeding trial, vitamin D3 metabolites in plasma and muscle
Description: as §1, §2

[5] = Study 2: Atlantic salmon 90-day feeding trial, final body weight, FCR and PER; conditions: Atlantic salmon, 100, 200 or 400 μg/kg 25-OH-D3 in feed, 90 days, relative to control
Description: as §3, §4

[6] = rainbow trout, 80, 800 or 8000 μg/kg in standard trout feed

plasma levels of 1,25-OH-D3 (active D3 metabolite) ([4]; rainbow trout, 80, 800 or 8000 μg/kg dietary 25-OH-D3 from Hy·D, D3-replete diets): increased plasma levels | blood plasma 25-OH-D3 in response to increasing dietary 25-OH-D3 [4, 6]: increase in a linear relationship | muscle 25-OH-D3 in response to increasing dietary 25-OH-D3 [4, 6]: increase in a linear relationship | bioavailability to fish ([4]; rainbow trout, from changes in plasma and muscle vitamin D3 metabolites): highly bioavailable
Structure (SMILES): C=C1CC[C@H](O)C/C1=C/C=C1\CCC[C@]2(C)[C@@H]([C@H](C)CCCC(C)(C)O)CC[C@@H]12 [25-OH-D3, 25-hydroxyvitamin D3]
feed efficiency (FE) ([1]; rainbow trout fry, vs 1.19 for comparison diet, p=0.0002): 1.29 | whole body protein ([1]; rainbow trout, 47.38 vs. 51.15, p=0.006): 51.15 | specific growth rate (SGR) relative to the control ([2]; apparent from 31 days onwards): rapidly improved; also recorded: increased growth rate relative to the control | feed conversion ratio (FCR) relative to the control ([2]; from 15 days onwards): rapidly improved | carcass yield (percentage carcass) [3]: improved carcass yields; also recorded: increased | percentage fat in the viscera [3]: reduced percentage fat being deposited in the viscera | viscerosomatic index (VSI) [3]: reduced VSI; also recorded: decreased VSI | feed conversion (FCR) [5]: improved | final body weight [5]: improved; also recorded: increased growth | protein efficiency ratio (PER) [5]: improved
